These compounds were tested against T1, Human CXCR4 transfected HEK293 cells (Homo sapiens, UniProt P61073) (assay: CXCR4 functional calcium assay (calcium flux FLIPR, antagonism of SDF1 response)). Conditions: CXCR4 functional activity, antagonism of SDF1 (EC50 concentration), read-out: CXCR4 fKi.
T1 construct: expressed in transfected cells; host or cells: HEK293
Format: cell-based
Description: The functional activity of test compounds was routinely tested by measuring the ability of compounds to antagonize CXCR4 activity in a dose dependent manner, using a calcium flux Fluorescent Imaging Plate Reader FLIPR assay.
Human CXCR4 transfected HEK293 cells were cultured in Dulbecco's modified Eagles medium containing 4.5 g/L glucose, L-glutamine, pyruvate, 50 µg/mL Geneticin and 250 µg/mL hygromycin B and maintained at 37° C. in a humidified, 5% CO2 controlled atmosphere. Subcultivations were performed every 2-3 d.
At confluence the cells were lifted using Ca^2+ and Mg^2+ free PBS/0.02% (w/v) EDTA, spun at 1000 rpm for 3 min and resuspended at 2.5×10^5 cells/mL. Cells were plated into a 384 well, poly-d-lysine coated, black with clear bottomed plate (Becton Dickinson) at 7500 cells/well. The plates were incubated overnight at 37° C. under 5% CO2. On the day of the experiment the cells were washed with incubation Buffer (HBSS containing 2.5 mM probenecid, 0.1% w/v BSA and 10 mM HEPES, pH 7.4 at 37° C.). After washing, the cells were loaded with Fluo-4 AM dye (Molecular probes) at 2 µM containing 0.48 µg/mL pluronic acid for 60 min at 37° C. under 5% CO2. After thorough washing with incubation buffer the cells were preincubated for 10 min at 37° C. before use.
A combined agonist/antagonist protocol was used to measure changes in intracellular calcium concentration. Compound (antagonist) was added to the cell plate using a Fluorometric Imaging Plate Reader (FLIPR) (Molecular Devices, Sunnyvale, Calif., USA). Basal fluorescence was recorded every second for 10 seconds prior to compound addition (10 μl) and fluorescence recorded every second for 1 min then every 6 seconds for a further 1 min. SDF1[…] (EC50 concentration) was then added using the FLIPR and fluorescence recorded as described above. Curve-fitting and parameter estimation were carried out using GraphPad Prism 4.0 (GraphPad Software Inc., San Diego, Calif.).

T1 sequence (P61073 whole entry): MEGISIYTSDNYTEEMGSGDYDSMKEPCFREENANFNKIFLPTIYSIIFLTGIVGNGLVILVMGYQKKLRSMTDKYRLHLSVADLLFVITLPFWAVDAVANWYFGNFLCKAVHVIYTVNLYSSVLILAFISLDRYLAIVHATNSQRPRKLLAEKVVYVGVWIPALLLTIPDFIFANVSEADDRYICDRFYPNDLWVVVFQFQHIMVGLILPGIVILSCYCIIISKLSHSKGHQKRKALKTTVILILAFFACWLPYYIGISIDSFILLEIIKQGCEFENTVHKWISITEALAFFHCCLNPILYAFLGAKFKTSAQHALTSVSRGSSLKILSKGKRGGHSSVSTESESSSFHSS

Row | Ki | SMILES
1 | 500 to 1000 nM | O=C(NCC1CC1)c1cccc(N2CCCN(CCCN3CCC(F)(F)C3)CC2)n1 [Example 253, N-(Cyclopropylmethyl)-6-{4-[3-(3,3-difluoropyrrolidin-1-yl)propyl]-1,4-diazepan-1-yl}pyridine-2-carboxamide]
2 | 20 to 100 nM | CC(C)N1CCC(N2CCCN(c3cccc(C(=O)NCC4CC4)n3)CC2C)CC1 (stereo not drawn) [Example 194, N-(Cyclopropylmethyl)-6-{3-methyl-4-[1-(propan-2-yl)piperidin-4-yl]-1,4-diazepan-1-yl}pyridine-2-carboxamide]
3 | 500 to 1000 nM | CC(C)CN(C)C(=O)c1cccc(N2CCCN(C3CCN(C(C)C)CC3)CC2)n1 [Example 17, N-Methyl-N-(2-methylpropyl)-6-{4-[1-(propan-2-yl)piperidin-4-yl]-1,4-diazepan-1-yl}pyridine-2-carboxamide]
4 | 100 to 500 nM | CC(C)N1CCC(N2CCCN(c3cccc(C(=O)NCCO)n3)CC2)CC1 [Example 12, N-(2-Hydroxyethyl)-6-{4-[1-(propan-2-yl)piperidin-4-yl]-1,4-diazepan-1-yl}pyridine-2-carboxamide]
5 | 100 to 500 nM | CC(C)N1CCC(N2CCCN(c3cccc(C(=O)NC4CCOCC4)n3)CC2)CC1 [Example 2, N-(Oxan-4-yl)-6-{4-[1-(propan-2-yl)piperidin-4-yl]-1,4-diazepan-1-yl}pyridine-2-carboxamide]
6 | < 20 nM | CC(C)N1CCC(N2CCCN(c3cccc(C(=O)NCC4CC4)n3)CC2)CC1 [Example 63, N-(Cyclopropylmethyl)-6-{4-[1-(propan-2-yl)piperidin-4-yl]-1,4-diazepan-1-yl}pyridine-2-carboxamide]
7 | 20 to 100 nM | CCC(CC)N1CCC(N2CCCN(c3cccc(C(=O)NCC4CC4)n3)CC2)CC1 [Example 66, N-(Cyclopropylmethyl)-6-{4-[1-(pentan-3-yl)piperidin-4-yl]-1,4-diazepan-1-yl}pyridine-2-carboxamide]
8 | 100 to 500 nM | CC(C)N1CCC(N2CCCN(c3cccc(C(=O)NCCCn4ccnc4)n3)CC2)CC1 [Example 3, N-[3-(1H-Imidazol-1-yl)propyl]-6-{4-[1-(propan-2-yl)piperidin-4-yl]-1,4-diazepan-1-yl}pyridine-2-carboxamide]
9 | 20 to 100 nM | CC(C)N1CCC(N2CCCN(c3cccc(C(=O)NCc4cnco4)n3)CC2)CC1 [Example 44, N-(1,3-Oxazol-5-ylmethyl)-6-{4-[1-(propan-2-yl)piperidin-4-yl]-1,4-diazepan-1-yl}pyridine-2-carboxamide]
10 | 100 to 500 nM | CC(C)N1CCC(N2CCCN(c3cccc(C(=O)NC[C@H]4CCCO4)n3)CC2)CC1 [Example 20, N-[(2R)-Oxolan-2-ylmethyl]-6-{4-[1-(propan-2-yl)piperidin-4-yl]-1,4-diazepan-1-yl}pyridine-2-carboxamide]
11 | 20 to 100 nM | [2H]C1([2H])CCN(c2cccc(C(=O)NCC3CC3)n2)CCN1C1CCN(C(C)C)CC1 [Example 192, N-(Cyclopropylmethyl)-6-{5,5-dihydrogenio-4-[1-(propan-2-yl)piperidin-4-yl]-1,4-diazepan-1-yl}pyridine-2-carboxamide]
12 | < 20 nM | CC(C)N1CCC(N2CCCN(c3cccc(C(=O)NCc4ccco4)n3)CC2)CC1 [Example 40, N-(Furan-2-ylmethyl)-6-{4-[1-(propan-2-yl)piperidin-4-yl]-1,4-diazepan-1-yl}pyridine-2-carboxamide]

Second part, the compound before the results:

Row | SMILES | Ki
13 | Cc1nc(-c2cccc(NCCNC3CCCN(C4CCCC4)C3)n2)[nH]c1C1CC1 (stereo not drawn) [Example 231, N-{2-[(1-Cyclopentylpiperidin-3-yl)amino]ethyl}-6-(5-cyclopropyl-4-methyl-1H-imidazol-2-yl)pyridin-2-amine] | 100 to 500 nM
14 | CC(C)N1CCN(C)[C@H](CN2CCCN(c3cccc(C(=O)Nc4ccncc4)n3)CC2)C1 [Example 202, 6-(4-{[(2R)-1-Methyl-4-(propan-2-yl)piperazin-2-yl]methyl}-1,4-diazepan-1-yl)-N-(pyridin-4-yl)pyridine-2-carboxamide] | 500 to 1000 nM
15 | Cc1cc(C(=O)NCCCn2ccnc2)nc(N2CCCN(C3CCN(Cc4ccccc4Cl)CC3)CC2)n1 [Example 266, 2-(4-{1-[(2-Chlorophenyl)methyl]piperidin-4-yl}-1,4-diazepan-1-yl)-N-[3-(1H-imidazol-1-yl)propyl]-6-methylpyrimidine-4-carboxamide] | 100 to 500 nM
16 | Cc1nc(-c2cccc(N3CCCN(C4CCN(C(C)C)CC4)CC3)n2)[nH]c1C1CC1 [Example 121, 1-[6-(4-Cyclopropyl-5-methyl-1H-imidazol-2-yl)pyridine-2-yl]-4-[1-(propan-2-yl)piperidin-4-yl]-1,4-diazepane] | < 20 nM
17 | [2H]C1([2H])CCN(C2CCN([C@@H](C)CC)CC2)CCN1c1cccc(C(=O)Nc2ccncc2)n1 [Example 177, 6-(4-{1-[(2S)-Butan-2-yl]piperidin-4-yl}-7,7-dihydrogenio-1,4-diazepan-1-yl)-N-(pyridine-4-yl)pyridine-2-carboxamide] | < 20 nM
18 | CCCCNC(=O)c1cccc(N2CCCN(CC3CN(C(C)C)CCO3)CC2)n1 (stereo not drawn) [Example 250, N-Butyl-6-(4-{[4-(propan-2-yl)morpholin-2-yl]methyl}-1,4-diazepan-1-yl)pyridine-2-carboxamide] | 20 to 100 nM
19 | c1ccc2c(c1)CCC2N1CCC(N2CCCN(c3nccs3)CC2)CC1 (stereo not drawn) [Example 126, 1-[1-(2,3-Dihydro-1H-inden-1-yl)piperidin-4-yl]-4-(1,3-thiazol-2-yl)-1,4-diazepane] | 500 to 1000 nM
20 | COc1ccc(C(=O)NCC2CC2)nc1N1CCCN(C2CCN(Cc3ccccc3Cl)CC2)CC1 [Example 270, 6-(4-{1-[(2-Chlorophenyl)methyl]piperidin-4-yl}-1,4-diazepan-1-yl)-N-(cyclopropylmethyl)-5-methoxypyridine-2-carboxamide] | 100 to 500 nM
21 | [2H]C1([2H])CCN(C2CCN(C3CCCC3)CC2)CCN1c1cccc(C(=O)Nc2ccncc2)n1 [Example 179, 6-[4-(1-Cyclopentylpiperidin-4-yl)-7,7-dihydrogenio-1,4-diazepan-1-yl]-N-(pyridine-4-yl)pyridine-2-carboxamide] | < 20 nM
22 | Cc1nc(-c2cccc(N3CC[C@@H](NC[C@H]4CCN(C5CCCC5)C4)C3)n2)[nH]c1C1CC1 [Example 225, (3R)—N-{[(3R)-1-Cyclopentylpyrrolidin-3-yl]methyl}-1-[6-(4-cyclopropyl-5-methyl-1H-imidazol-2-yl)pyridin-2-yl]pyrrolidin-3-amine] | < 20 nM
23 | CC(C)CCNC(=O)c1cccc(N2CCCN(C3CCN(Cc4ccccc4Cl)CC3)CC2)n1 [Example 49, 6-(4-{1-[(2-Chlorophenyl)methyl]piperidin-4-yl}-1,4-diazepan-1-yl)-N-(3-methylbutyl)pyridine-2-carboxamide] | 100 to 500 nM
24 | O=C(NCC1CC1)c1cccc(N2CCCN(CCCNCc3ccccc3Cl)CC2)n1 [Example 258, 6-[4-(3-{[(2-Chlorophenyl)methyl]amino}propyl)-1,4-diazepan-1-yl]-N-(cyclopropylmethyl)pyridine-2-carboxamide] | 100 to 500 nM
25 | O=C(NCc1ccncc1)c1cccc(N2CCCN(C3CCN(Cc4ccccc4Cl)CC3)CC2)n1 [Example 56, 6-(4-{1-[(2-Chlorophenyl)methyl]piperidin-4-yl}-1,4-diazepan-1-yl)-N-(pyridine-4-ylmethyl)pyridine-2-carboxamide] | < 20 nM
26 | c1cc(NCCNCC2CCN(C3CCCC3)C2)nc(-c2ncc(C3CC3)[nH]2)c1 (stereo not drawn) [Example 229, [(1-Cyclopentylpyrrolidin-3-yl)methyl](2-{[6-(5-cyclopropyl-1H-imidazol-2-yl)pyridin-2-yl]amino}ethyl)amine] | 100 to 500 nM
27 | [2H]C1([2H])CCN(C2CCN(C(C)C)CC2)CCN1c1cccc(C(=O)Nc2ccncc2)n1 [Example 175, 6-{7,7-Dihydrogenio-4-[1-(propan-2-yl)piperidin-4-yl]-1,4-diazepan-1-yl}-N-(pyridine-4-yl)pyridine-2-carboxamide] | < 20 nM
28 | Cc1cnc(-c2cccc(N3CCCN(C4CCN(C(C)C)CC4)CC3)n2)[nH]1 [Example 107, 1-[6-(4-Methyl-1H-imidazol-2-yl)pyridine-2-yl]-4-[1-(propan-2-yl)piperidin-4-yl]-1,4-diazepane] | 20 to 100 nM
29 | [2H]C1([2H])CCN(c2cccc(C(=O)Nc3ccncc3)n2)CCN1C1CCN([C@H](C)CC)CC1 [Example 188, 6-(4-{1-[(2R)-Butan-2-yl]piperidin-4-yl}-5,5-dihydrogenio-1,4-diazepan-1-yl)-N-(pyridin-4-yl)pyridine-2-carboxamide] | < 20 nM
30 | O=C(NCc1cccnc1)c1cccc(N2CCCN(C3CCN(Cc4ccccc4Cl)CC3)CC2)n1 [Example 55, 6-(4-{1-[(2-Chlorophenyl)methyl]piperidin-4-yl}-1,4-diazepan-1-yl)-N-(pyridine-3-ylmethyl)pyridine-2-carboxamide] | 20 to 100 nM

Reference: patent US10995091B2 (Proximagen, LLC, priority 2010, dated 2021)
